Data taken from US6555091B1, “Polypeptide capable of reacting with antibodies of patients suffering from multiple sclerosis and uses” (Bio Merieux, priority 1997, dated 2003).

Test system: IgG of CSF from patients suffering from MS
Test: ELISA of polypeptides, IgG response of CSFs diluted 1/10 (Table 5, FIGS. 7A and 7B)
Assay type: binding, human
Parameters: key to IgG recognition by CSF: positive (+) if the OD value at 492 nm for a 1/10 dilution of the CSF is greater than the mean values obtained for the CSFs from the ND patients+3 times the standard deviation
Settings: for number of positive (+) CSFs: total line, 15 MS patients, CSF 1/10
Description: FIGS. 7A and 7B represents the IgG response of the polypeptides whose peptide sequence consists of, respectively, SEQ ID NO: 13, SEQ ID NO: 12, SEQ ID NO: 14, SEQ ID NO: 16, SEQ ID NO: 19 and SEQ ID NO: 15, with respect to CSFs diluted 1/10; the results assembled in the appended Table 5 are expressed by the difference in the optical density values obtained for the polypeptide tested and the values obtained for the HIV polypeptide used as control; ND corresponds to patients suffering from a neurological disease other than MS, and MS* corresponds to patients suffering from MS.
Table 5, illustrated in FIGS. 7A and 7B, collates the results on the specific recognition of CSF from patients suffering from MS for 6 polypeptides of the invention, SEQ ID NO: 13, SEQ ID NO: 12, SEQ ID NO: 14, SEQ ID NO: 16, SEQ ID NO: 19 and SEQ ID NO: 15.
For each polypeptide tested, identified in Table 5 by its peptide sequence, the CSFs from patients 1-22 suffering from Ms are determined as positive (+) if the OD value at 492 nm for a 1/10 dilution of the CSF is greater than the mean values obtained for the CSFs from the ND patients+3 times the standard deviation.

Row | Sequence | IgG recognition by CSF (CSF of MS patient 1, 1/10) | IgG recognition by CSF (CSF of MS patient 2, 1/10) | IgG recognition by CSF (CSF of MS patient 5, 1/10) | IgG recognition by CSF (CSF of MS patient 6, 1/10) | IgG recognition by CSF (CSF of MS patient 7, 1/10) | IgG recognition by CSF (CSF of MS patient 8, 1/10) | IgG recognition by CSF (CSF of MS patient 10, 1/10) | IgG recognition by CSF (CSF of MS patient 16, 1/10) | IgG recognition by CSF (CSF of MS patient 18, 1/10) | IgG recognition by CSF (CSF of MS patient 21, 1/10) | number of positive (+) CSFs | IgG recognition by CSF (CSF of MS patient 22, 1/10) | IgG recognition by CSF (CSF of MS patient 3, 1/10)
1 | MPVSRLCIELDWCPP (MSRV) [SEQ ID NO: 12] | + | + | + | + | + | + | + | + | + | + | 10+ |  | 
2 | RGTQEWTELWVSFRA (MSRV) [SEQ ID NO: 19] |  |  | + | + | + | + | + |  | + | + | 8+ | + | 
3 | SRGSHEWAVLFRFYY (MSRV) [SEQ ID NO: 16] | + | + | + | + | + | + | + |  | + | + | 11+ | + | +
